# Test results: patent publication US11518764B2, “Substituted heteroaryls as inhibitors of the BCL6 BTB domain protein-protein interaction” (Ontario Institute for Cancer Research (OICR), priority 2018, dated 2022)
# Read-outs that look alike come from different tables or passages of the source.
# Tests used:
# [1] = molecular target: BCL6 BTB domain (Homo sapiens (Human), UniProt P41182); assay: Surface plasmon resonance (SPR) assay; type: binding; settings: BCL6 BTB domain captured on SA chip, single cycle kinetics
# [2] = test system: BCL6 reporter construct (3xBCL6-TK-Luc) in SuDHL4 cells; assay: Cell-based luciferase assay
# Experimental: Cell-Based Luciferase Assay
# A BCL6 reporter construct containing three copies of the consensus BCL6 binding site, the TK promoter, and the firefly luciferase gene was stably expressed in SuDHL4 cells after lentivirus infection and selection with Blasticidin. SuDHL4-3×BCL6-TK-Luc cells were seeded into a Viewplate 384-well assay dish at 15,000 cells/well in 25 ul medium (Alpha-MEM high glucose containing 10% FBS, 25 mM HEPES, […] GlutaMAX, 100 ug/ml Normocin, and […] Gentamycin, Invitrogen). A HP D300 digital dispenser was used to dose cells with DMSO or test compounds across a 10-point range of concentrations (high dose of 10 uM), and cultures were grown in a humidified 5% CO2 incubator at 37° C. After two days, plates were removed from the incubator and equilibrated to room temperature. An equal volume of neolite reporter gene assay reagent was added to each well, and samples were processed according to manufacturer's instructions (Perkin Elmer). Luminescent signal was measured using an Envision plate reader equipped with a US-Luminescence detector.
# [3] = test system: Karpas422 cells; assay: Tumor cell growth inhibition assay; type: cell-based
# Experimental: Tumor Cell Growth inhibition Assay
# Karpas422 cells were seeded into a 96-well plate at 2,000 cells/well in 150 ul medium (Alpha-MEM containing 10% FBS, […] Normocin, and […] Gentamycin, Invitrogen). A HP D300 digital dispenser was used to dose cells with DMSO or test compounds across a 10-point range of concentrations (high dose of 5 uM), and cultures were grown in a humidified 5% CO2 incubator at 37° C. After six days, plates were removed from incubator and equilibrated to room temperature. An equal volume of ATPlite assay reagent was added to each well, and samples were processed according to manufacturer's instructions (Perkin Elmer). Luminescent signal was measured using an Envision plate reader equipped with a US-Luminescence detector.
# [4] = Homo sapiens, SU-DHL-4, 48 h, read-out: Luciferase-Assay EC50, uM), SuDHL4-3xBCL6-TK-Luc cells, two days, high dose 10 uM
# [5] = Homo sapiens, KARPAS-422, 144 h, read-out: Tumor Growth Inhibition in Karpas-422 (IC50, uM), Karpas422 cells, six days, ATPlite
# [6] = read-out: Tumor Growth Inhibition in Karpas-422 (IC50), Karpas422 cells, six days, ATPlite
# [7] = read-out: Luciferase-Assay EC50, SuDHL4-3xBCL6-TK-Luc cells, two days, high dose 10 uM
Compound,Kd [1],"EC50 [2, 4]","IC50 [3, 5]","IC50 [3, 6]","EC50 [2, 7]"
Cn1cnc2c(c(-c3cc(Cl)c(O)c(C(N)=O)c3)cn2CC(=O)Nc2cc(N3CC4CC3CO4)ncc2Cl)c1=O (stereo not drawn) [Compound I-154],33.9 nM,0.469 µM,0.559 µM,–,–
Cn1cnc2c(c(-c3cc(Cl)c(O)c(C(N)=O)c3)cn2CC(=O)Nc2cc(N3CC4CC4C3)ncc2Cl)c1=O (stereo not drawn) [Compound I-155],32.6 nM,0.923 µM,1.55 µM,–,–
Cn1cnc2c(c(-c3cc(Cl)c(O)c(C(N)=O)c3)cn2CC(=O)Nc2cc(N3CCCC4(CCOCC4)C3)ncc2Cl)c1=O [Compound I-156],49.6 nM,0.941 µM,0.576 µM,–,–
C[C@H]1COCCN1c1cc(NC(=O)Cn2cc(-c3cc(F)c(O)c(C(N)=O)c3)c3c(=O)n(C)cnc32)c(Cl)cn1 [Compound I-157],6.1 nM,0.18 µM,0.148 µM,–,–
Cn1cnc2c(c(-c3cc(F)c(O)c(C(N)=O)c3)cn2CC(=O)Nc2cc(N3C[C@H]4CCO[C@H]4C3)ncc2Cl)c1=O [Compound I-158],1.76 nM,1.01 µM,0.249 µM,–,–
Cc1nc2cc(Cl)c(NC(=O)Cn3cc(-c4cc(F)c(O)c(C(N)=O)c4)c4c(=O)n(C)cnc43)cc2o1 [Compound I-159],47.7 nM,0.282 µM,0.282 µM,–,–
Cc1nc2cc(Cl)c(NC(=O)Cn3cc(-c4cc(F)c(O)c(C(N)=O)c4)c4c(=O)n(C)cnc43)cc2s1 [Compound I-160],39.1 nM,0.396 µM,0.507 µM,–,–
C[C@H]1COCCN1c1cc(NC(=O)Cn2cc(-c3cc(C(N)=O)c(O)cc3F)c3c(=O)n(C)cnc32)c(Cl)cn1 [Compound I-161],115 nM,0.971 µM,1.29 µM,–,–
Cn1cnc2c(c(-c3cc(C(N)=O)c(O)cc3F)cn2CC(=O)Nc2cc(N3CC4CCC(C3)O4)ncc2Cl)c1=O [Compound I-162],84.7 nM,0.676 µM,0.643 µM,–,–
Cn1cnc2c(c(-c3cc(C(N)=O)c(O)cc3F)cn2CC(=O)Nc2cc(N3C[C@H]4CCO[C@H]4C3)ncc2Cl)c1=O [Compound I-163],50.5 nM,0.572 µM,0.93 µM,–,–
COC[C@H]1COCCN1c1cc(NC(=O)Cn2cc(-c3cc(Cl)c(O)c(C(N)=O)c3)c3c(=O)[nH]cnc32)c(Cl)cn1 [Compound I-164],7.76 nM,0.601 µM,0.251 µM,–,–
C[C@@H]1CN(c2cc(NC(=O)Cn3cc(-c4cc(Cl)c(O)c(C(N)=O)c4)c4c(=O)[nH]cnc43)c(Cl)cn2)C[C@H](C)O1 [Compound I-166],15 nM,0.184 µM,0.0862 µM,–,–
C[C@H]1COCCN1c1cc(NC(=O)Cn2cc(-c3cc(C(N)=O)c(O)c(Cl)c3F)c3c(=O)n(C)cnc32)c(Cl)cn1 [Compound I-167],299 nM,2.81 µM,2.34 µM,–,–
COc1c(O)c(C(N)=O)cc(-c2cn(CC(=O)Nc3cc(N4CCOC[C@@H]4C)ncc3Cl)c3ncn(C)c(=O)c23)c1F [Compound I-168],74 nM,1.3 µM,0.769 µM,–,–
Cn1cnc2c(c(-c3cc(C(N)=O)c(O)c(Cl)c3F)cn2CC(=O)Nc2cc(N3CCOCC3)ncc2Cl)c1=O [Compound I-169],206 nM,1.96 µM,1.89 µM,–,–
C[C@@H]1CN(c2cc(NC(=O)Cn3cc(-c4cc(C(N)=O)c(O)c(Cl)c4F)c4c(=O)n(C)cnc43)c(Cl)cn2)C[C@H](C)O1 [Compound I-170],369 nM,2.14 µM,–,10 µM,–
COc1c(O)c(C(N)=O)cc(-c2cn(CC(=O)Nc3cc(N4CCOCC4)ncc3Cl)c3ncn(C)c(=O)c23)c1F [Compound I-171],99.7 nM,1.2 µM,1.04 µM,–,–
COc1c(O)c(C(N)=O)cc(-c2cn(CC(=O)Nc3cc(N4C[C@@H](C)O[C@@H](C)C4)ncc3Cl)c3ncn(C)c(=O)c23)c1F [Compound I-172],167 nM,0.797 µM,1.34 µM,–,–
Cn1cnc2c(c(-c3cc(Cl)c(O)c(C(N)=O)c3)cn2CC(=O)Nc2cn3ccnc3cc2Cl)c1=O [Compound I-173],200 nM,44.6 µM,5.72 µM,–,–
Cn1cnc2c(c(-c3cc(Cl)c(O)c(C(N)=O)c3)cn2CC(=O)Nc2cc3nccn3cc2Cl)c1=O [Compound I-174],2950 nM,10 µM,10 µM,–,–

Compound,Kd [1],"EC50 [2, 4]","IC50 [3, 5]","IC50 [3, 6]","EC50 [2, 7]"
Cn1cnc2c(c(-c3cc(F)c(O)c(C(N)=O)c3)cn2CC(=O)Nc2cc(N3CC4CCC(C3)O4)ncc2Cl)c1=O [Compound I-176],6.06 nM,0.239 µM,0.137 µM,–,–
CN1CCOC2(CCN(c3cc(NC(=O)Cn4cc(-c5cc(F)c(O)c(C(N)=O)c5)c5c(=O)n(C)cnc54)c(Cl)cn3)C2)C1 (stereo not drawn) [Compound I-177],5.88 nM,0.629 µM,0.331 µM,–,–
Cn1cnc2c(c(-c3cc(C(N)=O)c(O)c(F)c3F)cn2CC(=O)Nc2cc(N3CCOCC3)ncc2Cl)c1=O [Compound I-178],62.1 nM,0.96 µM,0.877 µM,–,–
C[C@@H]1CN(c2cc(NC(=O)Cn3cc(-c4cc(C(N)=O)c(O)c(F)c4F)c4c(=O)n(C)cnc43)c(Cl)cn2)C[C@H](C)O1 [Compound I-179],77.7 nM,0.612 µM,0.681 µM,–,–
C[C@H]1COCCN1c1cc(NC(=O)Cn2cc(-c3cc(C(N)=O)c(O)c(F)c3F)c3c(=O)n(C)cnc32)c(Cl)cn1 [Compound I-180],45.4 nM,1.37 µM,2.18 µM,–,–
Cn1cnc2c(c(-c3cc(Cl)c(O)c(C(N)=O)c3)cn2CC(=O)Nc2cc3cnn(C)c3cc2Cl)c1=O [Compound I-181],617 nM,33 µM,10 µM,–,–
Cn1cc2cc(NC(=O)Cn3cc(-c4cc(Cl)c(O)c(C(N)=O)c4)c4c(=O)n(C)cnc43)c(Cl)cc2n1 [Compound I-182],86.3 nM,1.41 µM,1.03 µM,–,–
CN1CCc2cc(NC(=O)Cn3cc(-c4cc(Cl)c(O)c(C(N)=O)c4)c4c(=O)n(C)cnc43)c(Cl)cc21 [Compound I-183],221 nM,3.91 µM,10 µM,–,–
CN1CCOC2(CCN(c3cc(NC(=O)Cn4cc(-c5cc(C(N)=O)c(O)cc5F)c5c(=O)n(C)cnc54)c(Cl)cn3)C2)C1 (stereo not drawn) [Compound I-184],37.4 nM,0.348 µM,0.26 µM,–,–
Cn1cnc2c(c(-c3cc(Cl)c(O)c(C(N)=O)c3)cn2CC(=O)Nc2c(Cl)cnc(N3CCOCC3)c2F)c1=O [Compound I-185],118 nM,3.44 µM,–,2.2 µM,–
CN1CCN(c2cc(NC(=O)Cn3cc(-c4cc(C(N)=O)c(O)c(Cl)c4F)c4c(=O)n(C)cnc43)c(Cl)cn2)CC1 [Compound I-188],435 nM,4.75 µM,2.95 µM,–,–
COc1c(O)c(C(N)=O)cc(-c2cn(CC(=O)Nc3cc(N4CCN(C)CC4)ncc3Cl)c3ncn(C)c(=O)c23)c1F [Compound I-189],143 nM,1.69 µM,2.19 µM,–,–
Cn1cnc2c(c(-c3cc(Cl)c(O)c(C(N)=O)c3)cn2CC(=O)Nc2c(Cl)cnc(N3CCOCC3)c2F)c1=O [Compound I-191],122 nM,–,–,4.72 µM,5.42 µM
C[C@@H]1CN(c2cc(NC(=O)Cn3cc(-c4cc(C(N)=O)c(O)c(Cl)c4F)c4c(=O)n(C)cnc43)c(Cl)cn2)C[C@H](C)O1 [Compound I-192],757 nM,–,–,1.24 µM,3.98 µM
COc1c(O)c(C(N)=O)cc(-c2cn(CC(=O)Nc3cc(N4C[C@@H](C)N[C@@H](C)C4)ncc3Cl)c3ncn(C)c(=O)c23)c1F [Compound I-193],229 nM,5.39 µM,2.66 µM,–,–
Cc1c(N2CCOCC2)ncc(F)c1NC(=O)Cn1cc(-c2cc(Cl)c(O)c(C(N)=O)c2)c2c(=O)n(C)cnc21 [Compound I-194],120 nM,11 µM,5.65 µM,–,–
Cn1cnc2c(c(-c3cc(Cl)c(O)c(C(N)=O)c3)cn2CC(=O)Nc2cc(N3CCOCC3)c(F)cc2Cl)c1=O [Compound I-195],196 nM,1.5 µM,1.08 µM,–,–
Cn1cnc2c(c(-c3cc(C(N)=O)c(O)c(Cl)c3F)cn2CC(=O)Nc2cc(N3CCOCC3)ncc2F)c1=O [Compound I-196],323 nM,6.34 µM,10 µM,–,–
COc1c(O)c(C(N)=O)cc(-c2cn(CC(=O)Nc3cc(N4CCOCC4)ncc3F)c3ncn(C)c(=O)c23)c1F [Compound I-197],218 nM,4.01 µM,10 µM,–,–
